Data reported in ChEMBL document CHEMBL3808345, “Discovery of triazolopyridine GS-458967, a late sodium current inhibitor (Late INai) of the cardiac NaV 1.5 channel with improved efficacy and potency relative to ranolazine” (Bioorg Med Chem Lett, 2016).
Values after ≈ are worked out from the molar mass of the structure shown.

Legend:
[1] = Cmax in po dosed cynomolgus monkey; type: ADME, organism-based, Macaca fascicularis; parameters: route oral; details: in vivo
[2] = Clearance in iv dosed rat; type: ADME, organism-based; details: in vivo
[3] = Aqueous solubility of the compound in PBS at pH 7.6; type: physicochemical
[4] = AUC (0 to infinity) in po dosed rat; type: ADME, organism-based; parameters: time infinity, route oral; details: in vivo
[5] = Volume of distribution at steady state in iv dosed cynomolgus monkey; type: ADME, organism-based, Macaca fascicularis; details: in vivo, read-out: Vdss
[6] = Aqueous solubility of the compound in HCL at pH 2.2; type: physicochemical
[7] = Stability in dog liver microsomes; type: ADME, Canis lupus familiaris
[8] = Permeability from basolateral to apical side in human Caco2 cells at 10 uM; type: ADME, cell-based; details: Caco-2, read-out: permeability
[9] = Clearance in iv dosed cynomolgus monkey; type: ADME, organism-based, Macaca fascicularis; details: in vivo
[10] = Stability in human liver microsomes; type: ADME
[11] = Permeability from basolateral to apical side in human Caco2 cells at 1 uM; type: ADME, cell-based; details: Caco-2, read-out: permeability
[12] = Stability in rat liver microsomes; type: ADME
[13] = AUC (0 to infinity) in po dosed cynomolgus monkey; type: ADME, organism-based, Macaca fascicularis; parameters: time infinity, route oral; details: in vivo
[14] = Tmax in po dosed cynomolgus monkey; type: ADME, organism-based, Macaca fascicularis; details: in vivo
[15] = Cmax in po dosed rat; type: ADME, organism-based; parameters: route oral; details: in vivo
[16] = Permeability from apical to basolateral side in human Caco2 cells at 10 uM; type: ADME, cell-based; details: Caco-2, read-out: permeability
[17] = Oral bioavailability in rat; type: ADME, organism-based; details: in vivo
[18] = Permeability from apical to basolateral side in human Caco2 cells at 1 uM; type: ADME, cell-based; details: Caco-2, read-out: permeability
[19] = Tmax in po dosed rat; type: ADME, organism-based; details: in vivo
[20] = Lipophilicity, logD of the compound; type: physicochemical; details: octanol/water
[21] = Oral bioavailability in cynomolgus monkey; type: ADME, organism-based, Macaca fascicularis; details: in vivo
[22] = Volume of distribution at steady state in iv dosed rat; type: ADME, organism-based; details: in vivo, read-out: Vdss

Cmax [1]: 1480 nM
clearance [2]: 3.22 mL/min/kg
solubility [3]: 4.7 µM (≈ 1.63 µg/mL)
AUC(0-inf) [4]: 5.7 µM·h
Vd [5]: 0.6 L
solubility [6]: 6 µM (≈ 2.08 µg/mL)
half-life [7]: 1.17 h
Papp B→A at 10 µM [8]: 35.2 ×10⁻⁶ cm/s
clearance [9]: 0.217 mL/min/kg
half-life [10]: > 6.58 h
Papp B→A at 1 µM [11]: 44 ×10⁻⁶ cm/s
half-life [12]: 3.82 h
AUC(0-inf) [13]: 76.1 µM·h
Tmax [14]: 6 h
Cmax [15]: 397 nM
Papp A→B at 10 µM [16]: 27.9 ×10⁻⁶ cm/s
bioavailability [17]: 105%
Papp A→B at 1 µM [18]: 41.2 ×10⁻⁶ cm/s
Tmax [19]: 2.7 h
logD [20]: 3.38
bioavailability [21]: 83%
Vd [22]: 3.4 L
SMILES: FC(F)(F)Oc1ccc(-c2ccc3nnc(C(F)(F)F)n3c2)cc1
